# Values quoted from earlier work, collected in patent US20140302178A1, “Natural Product for Decreasing Symptoms During Viral Infections” (priority 2013, published 2014).
# Tested on: Herpes Simplex Virus (HSV)
# Settings: oral antiviral therapy; pooled meta-analysis
row,SMILES,decrease of outbreak duration and the associated pain [days]
1,Nc1nc2c(ncn2COCCO)c(=O)[nH]1 [aciclovir],1
2,CC(=O)OCC(CCn1cnc2cnc(N)nc21)COC(C)=O [famciclovir],1
3,CC(C)[C@H](N)C(=O)OCCOCn1cnc2c(=O)[nH]c(N)nc21 [valaciclovir],1
